Results: patent US20170355687A1, “ANTIBACTERIAL BENZOTHIAZOLE DERIVATIVES” (Actelion Pharmaceuticals Ltd, priority 2014, published 2017)
Converted amounts (≈) assume the structure as drawn.

Assays:
Assay in all cases: Bacterial growth minimal inhibitory concentration, microdilution in cation-adjusted Mueller-Hinton Broth (CLSI M7-A7)
Type in all cases: cell-based
E. coli ATCC25922 = conditions: Escherichia coli, ATCC25922; quinolone-sensitive strain; read-out: MIC for E. coli ATCC25922
Protocol: (§1) Minimal Inhibitory Concentrations (MICs; mg/L) were determined in cation-adjusted Mueller-Hinton Broth by a microdilution method following the description given in “Methods for Dilution Antimicrobial Susceptibility Tests for Bacteria that Grow Aerobically”, Approved standard, 7th ed., Clinical and Laboratory Standards Institute (CLSI) Document M7-A7, Wayne, Pa., USA (2006).
(§2) All Example compounds were tested against several Gram-positive and Gram-negative bacteria. […] K pneumoniae A-651 is a multiply-resistant (in particular quinolone-resistant) strain, while E. coli ATCC25922 and P. aeruginosa ATCC27853 are quinolone-sensitive strains.

K. Pneumoniae A-651 = conditions: Klebsiella pneumoniae; multiply-resistant (in particular quinolone-resistant) strain; read-out: MIC for K. Pneumoniae A-651
Protocol: as §1, §2

P. aeruginosa ATCC27853 = conditions: Pseudomonas aeruginosa, ATCC27853; quinolone-sensitive strain; read-out: MIC for P. aeruginosa ATCC27853
Protocol: as §1, §2

Row | MIC (E. coli ATCC25922) [mg/L] | MIC (K. Pneumoniae A-651) [mg/L] | MIC (P. aeruginosa ATCC27853) [mg/L] | Structure (SMILES)
1 | 1 (≈ 2.1 µM) | 2 (≈ 4.2 µM) | 2 (≈ 4.2 µM) | C[C@@](CCc1nc2ccc(C#CC#CC3(O)CCOCC3)cc2s1)(C(=O)NO)S(C)(=O)=O [Example 18, (R)-N-hydroxy-4-(6-((4-hydroxytetrahydro-2H-pyran-4-yl)buta-1,3-diyn-1-yl)benzo[d]thiazol-2-yl)-2-methyl-2-(methylsulfonyl)butanamide]
2 | 8 (≈ 17.4 µM) | 16 (≈ 34.8 µM) | 4 (≈ 8.7 µM) | C[C@@](CCc1nc2ccc(C#CC#CC3CCNCC3)cc2s1)(C(=O)NO)S(C)(=O)=O [Example 19, (R)-N-hydroxy-2-methyl-2-(methylsulfonyl)-4-(6-(piperidin-4-ylbuta-1,3-diyn-1-yl)benzo[d]thiazol-2-yl)butanamide]
3 | 0.5 (≈ 1.08 µM) | 0.5 (≈ 1.08 µM) | 1 (≈ 2.16 µM) | C[C@@](CCc1nc2ccc(C#CC#CC3(CO)COC3)cc2s1)(C(=O)NO)S(C)(=O)=O [Example 20, (R)-N-hydroxy-4-(6-((3-(hydroxymethyl)oxetan-3-yl)buta-1,3-diyn-1-yl)benzo[d]thiazol-2-yl)-2-methyl-2-(methylsulfonyl)butanamide]
4 | 0.5 (≈ 0.966 µM) | 1 (≈ 1.93 µM) | 2 (≈ 3.86 µM) | C[C@@](CCc1nc2ccc(C#CC#CC3CCN(C(=O)CO)CC3)cc2s1)(C(=O)NO)S(C)(=O)=O [Example 22, (R)-N-hydroxy-4-(6-((1-(2-hydroxyacetyl)piperidin-4-yl)buta-1,3-diyn-1-yl)benzo[d]thiazol-2-yl)-2-methyl-2-(methylsulfonyl)butanamide]
5 | 0.5 (≈ 1.02 µM) | 1 (≈ 2.04 µM) | 1 (≈ 2.04 µM) | C[C@@](CCc1nc2ccc(C#CC#CC3CN(C(=O)CO)C3)cc2s1)(C(=O)NO)S(C)(=O)=O [Example 25, (R)-N-hydroxy-4-(6-((1-(2-hydroxyacetyl)azetidin-3-yl)buta-1,3-diyn-1-yl)benzo[d]thiazol-2-yl)-2-methyl-2-(methylsulfonyl)butanamide]
6 | 0.063 (≈ 0.137 µM) | 0.125 (≈ 0.271 µM) | 0.5 (≈ 1.09 µM) | C[C@]1(CO)C[C@@H]1C#CC#Cc1ccc2nc(CC[C@](C)(C(=O)NO)S(C)(=O)=O)sc2c1 [Example 26, (R)-N-hydroxy-4-(6-(((1R,2S)-2-(hydroxymethyl)-2-methylcyclopropyl)buta-1,3-diyn-1-yl)benzo[d]thiazol-2-yl)-2-methyl-2-(methylsulfonyl)butanamide]
7 | 0.063 (≈ 0.136 µM) | 0.125 (≈ 0.269 µM) | 0.25 (≈ 0.538 µM) | C[C@@](CCc1nc2ccc(C#CC#C[C@H]3C[C@]3(F)CO)cc2s1)(C(=O)NO)S(C)(=O)=O [Example 27, (R)-4-(6-(((1R,2R)-2-fluoro-2-(hydroxymethyl)cyclopropyl)buta-1,3-diyn-1-yl)benzo[d]thiazol-2-yl)-N-hydroxy-2-methyl-2-(methylsulfonyl)butanamide]
